From patent publication US9540323B2 (BRISTOL-MYERS SQUIBB COMPANY, priority 2012, dated 2017)

How the values were obtained:
[1] = target: cloned human P2Y1 receptors (Homo sapiens (Human), UniProt P47900); assay: Binding Assay B - Scintillation Proximity Assay (SPA) for P2Y1 binding, [33P] 2MeS-ADP; settings: SPA, 0.3 nM [33P] 2MeS-ADP, Cheng-Prusoff; read-out: P2Y1 Ki (nM) using binding assay B
Protocol: Binding Assay B—Scintillation Proximity Assay (SPA) for P2Y1 Binding
A SPA membrane binding assay was used to identify inhibitors of [^33P] […] Reactions were allowed to proceed to completion at room temperature for 1 hour followed by centrifugation of the plate for 5 min. About 40 μL of the aqueous solution was aspirated. Plates were sealed and the [^33P]

[2] = tested on: human platelet rich plasma (PRP); assay: ADP induced platelet aggregation assay; settings: Homo sapiens, Platelet, 5 min, read-out: PA IC50 (μM) @ 10 μM ADP, human PRP, 10 μM ADP, AUC at 5 minute

Chain of cloned human P2Y1 receptors (P47900 whole entry): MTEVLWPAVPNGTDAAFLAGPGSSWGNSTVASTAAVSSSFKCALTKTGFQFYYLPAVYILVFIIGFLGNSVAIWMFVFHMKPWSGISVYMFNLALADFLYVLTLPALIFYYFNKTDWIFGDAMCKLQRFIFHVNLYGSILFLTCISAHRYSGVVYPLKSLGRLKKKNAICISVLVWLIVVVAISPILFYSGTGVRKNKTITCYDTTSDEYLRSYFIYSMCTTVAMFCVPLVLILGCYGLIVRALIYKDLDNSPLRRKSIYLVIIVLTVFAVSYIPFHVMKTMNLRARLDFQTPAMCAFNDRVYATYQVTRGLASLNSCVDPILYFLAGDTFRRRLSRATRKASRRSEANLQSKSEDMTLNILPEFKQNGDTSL

CC1(C)CN(c2ccccc2NC(=O)Nc2nc3ccc(Cl)cc3s2)c2c(O)ccc(C(F)(F)F)c21 [Example 19, 1-(6-Chlorobenzo[d]thiazol-2-yl)-3-(2-(7-hydroxy-3,3-dimethyl-4-(trifluoromethyl)indolin-1-yl)phenyl)urea]
Ki [1]: 23.6 nM | IC50 [2]: 0.12 µM

CC1(C)CN(c2ccccc2NC(=O)Nc2ccc(OC(F)(F)F)cc2)c2c(O)ccc(-c3ccnc(F)c3)c21 [Example 112, 1-(2-(4-(2-Fluoropyridin-4-yl)-7-hydroxy-3,3-dimethylindolin-1-yl)phenyl)-3-(4-(trifluoromethoxy)phenyl) urea]
Ki [1]: 9 nM | IC50 [2]: 0.43 µM

CC1(C)CN(c2ccccc2NC(=O)Nc2ccc(OC(F)(F)F)cc2)c2c(O)c(F)cc(Br)c21 [Example 69, 1-(2-(4-Bromo-6-fluoro-7-hydroxy-3,3-dimethylindolin-1-yl)phenyl)-3-(4-(trifluoromethoxy)phenyl)urea]
Ki [1]: 18.1 nM | IC50 [2]: 0.83 µM

CC1(C)CN(c2ccccc2NC(=O)Nc2ccc(OC(F)(F)F)cc2)c2c(O)cc(F)c(-c3ncc(F)cn3)c21 [Example 164, 1-(2-(5-Fluoro-4-(5-fluoropyrimidin-2-yl)-7-hydroxy-3,3-dimethylindolin-1-yl)phenyl)-3-(4-(trifluoromethoxy)phenyl)urea]
Ki [1]: 10.8 nM | IC50 [2]: 0.95 µM

CC1(C)CN(c2ccccc2NC(=O)Nc2nc3ccc(F)cc3s2)c2c(O)ccc(-c3ccc(F)cc3)c21 [Example 210, 1-(6-Fluorobenzo[d]thiazol-2-yl)-3-(2-(4-(4-fluorophenyl)-7-hydroxy-3,3-dimethylindolin-1-yl)phenyl)urea]
Ki [1]: 12.4 nM | IC50 [2]: 0.08 µM

CCC1(CC)CN(c2ccccc2NC(=O)Nc2ccc(OC(F)(F)F)cc2)c2c1ccc(F)c2O [Example 35, 1-(2-(3,3-Diethyl-6-fluoro-7-hydroxyindolin-1-yl)phenyl)-3-(4-(trifluoromethoxy)phenyl)urea]
Ki [1]: 13.8 nM | IC50 [2]: 0.38 µM

CC1(C)CN(c2ccccc2NC(=O)Nc2ccc(OC(F)(F)F)cc2)c2c(O)ccc(-c3ccc(F)c(F)c3)c21 [Example 204, 1-(2-(4-(3,4-Difluorophenyl)-7-hydroxy-3,3-dimethylindolin-1-yl)phenyl)-3-(4-(trifluoromethoxy)phenyl)urea]
Ki [1]: 7.7 nM | IC50 [2]: 0.4 µM

CCC1(CC)CN(c2ccccc2NC(=O)Nc2ccc(C3CCN(CC(C)C)CC3)cc2)c2c(O)ccc(C#N)c21 [Example 46, 1-(2-(4-Cyano-3,3-diethyl-7-hydroxyindolin-1-yl)phenyl)-3-(4-(1-isobutylpiperidin-4-yl)phenyl)urea]
Ki [1]: 9.5 nM | IC50 [2]: 1 µM

CC(C)n1nc(-c2c(F)cc(O)c3c2C(C)(C)CN3c2ccccc2NC(=O)Nc2csc(Cl)n2)cc1C(F)(F)F [Example 273, 1-(2-Chlorothiazol-4-yl)-3-(2-(5-fluoro-7-hydroxy-4-(1-isopropyl-5-(trifluoromethyl)-1H-pyrazol-3-yl)-3,3-dimethylindolin-1-yl)phenyl)urea]
Ki [1]: 9.4 nM | IC50 [2]: 0.05 µM

CC1(C)CN(c2ccccc2NC(=O)Nc2ccc(OC(F)(F)F)cc2)c2c(O)cc(F)c(-c3cccc(Cl)c3)c21 [Example 235, 1-(2-(4-(3-Chlorophenyl)-5-fluoro-7-hydroxy-3,3-dimethylindolin-1-yl)phenyl)-3-(4-(trifluoromethoxy)phenyl)urea]
Ki [1]: 19.5 nM | IC50 [2]: 0.23 µM

Cc1ccnc2oc(-c3ccc(O)c4c3C(C)(C)CN4c3ccccc3NC(=O)Nc3ccc(OC(F)(F)F)cc3)nc12 [Example 103, 1-(2-(7-Hydroxy-3,3-dimethyl-4-(7-methyloxazolo[5,4-b]pyridin-2-yl)indolin-1-yl)phenyl)-3-(4-(trifluoromethoxy)phenyl)urea]
Ki [1]: 11.1 nM | IC50 [2]: 1.03 µM

CC(C)c1noc(-c2c(F)cc(O)c3c2C(C)(C)CN3c2ccccc2NC(=O)Nc2ccc(OC(F)(F)F)cc2)n1 [Example 256, 1-(2-(5-Fluoro-7-hydroxy-4-(3-isopropyl-1,2,4-oxadiazol-5-yl)-3,3-dimethylindolin-1-yl)phenyl)-3-(4-(trifluoromethoxy)phenyl)urea]
Ki [1]: 6.6 nM | IC50 [2]: 0.76 µM

CC1(C)CN(c2ccccc2NC(=O)Nc2csc(C(F)(F)F)n2)c2c(O)cc(F)c(-c3nc4cc(Cl)ccc4s3)c21 [Example 180, 1-(2-(4-(5-Chlorobenzo[d]thiazol-2-yl)-5-fluoro-7-hydroxy-3,3-dimethylindolin-1-yl)phenyl)-3-(2-(trifluoromethyl)thiazol-4-yl)urea]
Ki [1]: 28.4 nM | IC50 [2]: 0.56 µM

CCC1(CC)CN(c2ccccc2NC(=O)Nc2ccc(C3CCCN3CC(C)(C)C)cc2)c2c(O)cccc21 (centres unmarked) [Example 7, 1-(2-(3,3-Diethyl-7-hydroxyindolin-1-yl)phenyl)-3-(4-(1-neopentylpyrrolidin-2-yl)phenyl)urea]
Ki [1]: 8.6 nM | IC50 [2]: 0.55 µM

CC1(C)CN(c2ccccc2NC(=O)Nc2ccc(OC(F)(F)F)cc2)c2c(O)ccc(-c3nc4ccccc4o3)c21 [Example 82, 1-(2-(4-(Benzo[d]oxazol-2-yl)-7-hydroxy-3,3-dimethylindolin-1-yl)phenyl)-3-(4-(trifluoromethoxy)phenyl)urea]
Ki [1]: 15.8 nM | IC50 [2]: 0.99 µM

CC1(C)CN(c2ccccc2NC(=O)Nc2ccc(OC(F)(F)F)cc2)c2c(O)ccc(C(F)(F)F)c21 [Example 12, 1-(2-(7-Hydroxy-3,3-dimethyl-4-(trifluoromethyl)indolin-1-yl)phenyl)-3-(4-(trifluoromethoxy)phenyl)urea]
Ki [1]: 5 nM | IC50 [2]: 0.2 µM

CC1(C)CN(c2ccccc2NC(=O)Nc2nc3ccc(F)nc3s2)c2c(O)cc(F)c(-c3nc4ccc(F)cc4s3)c21 [Example 178, 1-(2-(5-Fluoro-4-(6-fluorobenzo[d]thiazol-2-yl)-7-hydroxy-3,3-dimethylindolin-1-yl)phenyl)-3-(5-fluorothiazolo[5,4-b]pyridin-2-yl)urea]
Ki [1]: 17.9 nM | IC50 [2]: 0.74 µM

Cc1nnc(-c2ccc(O)c3c2C(C)(C)CN3c2ccccc2NC(=O)Nc2ccc(OC(F)(F)F)cc2)o1 [Example 86, 1-(2-(7-Hydroxy-3,3-dimethyl-4-(5-methyl-1,3,4-oxadiazol-2-yl)indolin-1-yl)phenyl)-3-(4-(trifluoromethoxy)phenyl)urea]
Ki [1]: 22.2 nM | IC50 [2]: 5 µM

Cc1cc(-c2c(F)cc(O)c3c2C(C)(C)CN3c2ccccc2NC(=O)Nc2ccc(OC(F)(F)F)cc2)ccc1F [Example 245, 1-(2-(5-Fluoro-4-(4-fluoro-3-methylphenyl)-7-hydroxy-3,3-dimethylindolin-1-yl)phenyl)-3-(4-(trifluoromethoxy)phenyl)urea]
Ki [1]: 11.4 nM | IC50 [2]: 0.19 µM

Cc1nc(NC(=O)Nc2ccccc2N2CC(C)(C)c3c(C(F)(F)F)ccc(O)c32)cs1 [Example 15, 1-(2-(7-Hydroxy-3,3-dimethyl-4-(trifluoromethyl)indolin-1-yl)phenyl)-3-(2-methylthiazol-4-yl)urea]
Ki [1]: 7.3 nM | IC50 [2]: 0.95 µM

CC1(C)CN(c2ccccc2NC(=O)Nc2ccc(OC(F)(F)F)cc2)c2c(O)ccc(Br)c21 [Example 40, 1-(2-(4-Bromo-7-hydroxy-3,3-dimethylindolin-1-yl)phenyl)-3-(4-(trifluoromethoxy)phenyl)urea]
Ki [1]: 13.8 nM | IC50 [2]: 0.53 µM

CCC1(CC)CN(c2ccccc2NC(=O)Nc2ccc(OC(F)(F)F)cc2)c2c(O)ccc(C(F)(F)F)c21 [Example 24, 1-(2-(3,3-Diethyl-7-hydroxy-4-(trifluoromethyl)indolin-1-yl)phenyl)-3-(4-(trifluoromethoxy)phenyl)urea]
Ki [1]: 7.6 nM | IC50 [2]: 0.22 µM

CC(C)CN1CCc2nc(NC(=O)Nc3ccccc3N3CC(C)(C)c4c(C(F)(F)F)ccc(O)c43)sc2C1 [Example 21, 1-(2-(7-Hydroxy-3,3-dimethyl-4-(trifluoromethyl)indolin-1-yl)phenyl)-3-(5-isobutyl-4,5,6,7-tetrahydrothiazolo[5,4-c]pyridin-2-yl)urea]
Ki [1]: 7.9 nM | IC50 [2]: 0.07 µM

Cc1noc(-c2ccc(O)c3c2C(C)(C)CN3c2ccccc2NC(=O)Nc2ccc(OC(F)(F)F)cc2)n1 [Example 97, 1-(2-(7-Hydroxy-3,3-dimethyl-4-(3-methyl-1,2,4-oxadiazol-5-yl)indolin-1-yl)phenyl)-3-(4-(trifluoromethoxy)phenyl)urea]
Ki [1]: 20.7 nM | IC50 [2]: 1.52 µM

CC1(C)CN(c2ccccc2NC(=O)Nc2csc(Cl)n2)c2c(O)cc(F)c(-c3ccc(C(F)(F)F)cc3)c21 [Example 239, 1-(2-Chlorothiazol-4-yl)-3-(2-(5-fluoro-7-hydroxy-3,3-dimethyl-4-(4-(trifluoromethyl)phenyl)indolin-1-yl)phenyl)urea]
Ki [1]: 11.3 nM | IC50 [2]: 0.05 µM

CC1(C)CN(c2ccccc2NC(=O)Nc2csc(Cl)n2)c2c(O)ccc(-c3nc4cc(Cl)ccc4s3)c21 [Example 147, 1-(2-(4-(5-Chlorobenzo[d]thiazol-2-yl)-7-hydroxy-3,3-dimethylindolin-1-yl)phenyl)-3-(2-chlorothiazol-4-yl)urea]
Ki [1]: 70.8 nM | IC50 [2]: 0.77 µM

CC1(C)CN(c2ccccc2NC(=O)Nc2ccc(OC(F)(F)F)cc2)c2c(O)ccc(-c3nc4cc(Cl)ccc4s3)c21 [Example 85, 1-(2-(4-(5-Chlorobenzo[d]thiazol-2-yl)-7-hydroxy-3,3-dimethylindolin-1-yl)phenyl)-3-(4-(trifluoromethoxy)phenyl)urea]
Ki [1]: 23.5 nM | IC50 [2]: 0.38 µM

CCC1(CC)CN(c2ccccc2NC(=O)Nc2ccc(C(C)(C)C)cc2)c2c(O)ccc(F)c21 [Example 26, 1-(4-tert-Butylphenyl)-3-(2-(3,3-diethyl-4-fluoro-7-hydroxyindolin-1-yl)phenyl)urea]
Ki [1]: 5.1 nM | IC50 [2]: 0.98 µM
